According to US20070203066A1, “Compositions and methods for inhibiting cellular proliferation” (priority 2005, published 2007):
Where two headings read alike, the source gives them in different places. Non-standard residues stand in square brackets, D forms with d. Primed or numbered codes have the meaning given here. No end group written: not given here. Ida(3) = iminodiacetic acid linker, Lys side-chain amines bound to its two carboxyl groups; GP3 = not defined here

Test system: HUVECs
Format: cell-based
Summary of the method: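 HUVECs seeded at 5,000 cells/well in EBM with 2% FCS, adhered ≥12 hours, then stimulated with bFGF 10 ng/ml or VEGF 5 ng/ml plus varying peptide concentrations. After 48 hours at 37 ° C, 5% CO2, proliferation inhibition read by BrdU incorporation.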

[1] = HUVEC proliferation, bFGF at 10 ng/ml or VEGF at 5 ng/ml, 48 hours, BrdU incorporation, read-out: IC50 on HUVECs

Molecule	IC50 [1]	IC50 (48 h)
322 (XRRRRQHVHIYFK; Xaa = Acylated Histidine; The side chain of Lysine at position 13 is covalently bound to an Ida linker forming a homodimer of residues 1 through 13.) [compound 322]	< 10 µM	–
318 (XRRRRQAVAIYFK; Xaa = Acylated Histidine; The side chain of Lysine at position 13 is covalently bound to an Ida linker forming a homodimer of residues 1 through 13.) [compound 318]	< 10 µM	–
266 (Ac-RRRRRQAVAIWFK; not fully specified (C-terminus); also: homodimer: side chain of Lys13 bound to an Ida linker) [compound 266]	< 10 µM	–
383 (Ac-ARRRRQFVAIYFK-NH2; not fully specified (residue 13); also: homodimer via Ida linker on Lys13 side chain, Ida amine Boc) [compound 383]	< 10 µM	–
358 (Ac-RRRRRQAVRIDIDFK; not fully specified) [compound 358]	> 30 µM	–
263 (Ac-A[dR]RRRQRVAIIFK-NH2; not fully specified (residue 13); also: homodimer via Ida linker on Lys13 side chains) [compound 263]	< 10 µM	–
421 (Ac-RRRRRQAVAIKF; not fully specified (residue 11); also: homodimer of residues 1-12 via Ida linker on K11 side chain) [compound 421]	< 10 µM	–
479 (Ac-PRRRVQAVAIYFK(Ida(3)); not fully specified (C-terminus); also: homodimer via Ida linker on Lys13 side chain) [compound 479]	10 to 30 µM	–
KTARKRKKQRVKIIFVQNM [compound 121]	< 10 µM	–
222 (XHHHHQAVAIIF; Xaa = Acylated Histidine; Dimeric peptide wherein the C terminus of Phe in position 12 of one peptide chain is covalently bound to one of the amino groups of a Lysine linker and Phe of the remaining peptide chain is covalently bound to the other amino group of the Lysine linker.) [compound 222]	> 30 µM	–
407 (Ac-NRRRRQAVAIYFK; not fully specified (residue 13, C-terminus); also: homodimer via Ida linker on Lys side chains, linker at 13 via Ida, other end not in the chain) [compound 407]	< 10 µM	–
452 (Ac-PRRRRQAVAIVFK-NH2; not fully specified (residue 13); also: homodimer via Ida linker at K13) [compound 452]	< 10 µM	–
KRKRKKQRVKIIFV [compound 87]	< 10 µM	–
389 (Ac-ARRRRQAVGIYFK-NH2; not fully specified (residue 13); also: homodimer via Ida linker on Lys13 side chain, Ida amine Boc) [compound 389]	< 10 µM	–
RKRKKQRVKIIFV [compound 90]	10 to 30 µM	–
412 (Ac-VRRRRQAVAIYFK; not fully specified (residue 13, C-terminus); also: homodimer via Ida linker on Lys side chains, linker at 13 via Ida, other end not in the chain) [compound 412]	< 10 µM	–
355 (Ac-ARRRR[dQ]RVAIIFK; not fully specified) [compound 355]	> 30 µM	–
467 (Ac-ARK(Ida(3))RRQAVAIYF; also: homodimer via Ida linker on Lys3 side chain) [compound 467]	> 30 µM	–
325 (Ac-RRRHRQHVRIYFK; not fully specified (residue 13, C-terminus); also: homodimer via Ida linker on Lys13 side chain) [compound 325]	< 10 µM	–
456 (Ac-KRRRRQAVAIVF; not fully specified (residue 1); also: homodimer via Ida linker on K1 side chain) [compound 456]	> 30 µM	–
189 (Ac-RRRRRQHVRIIF; also: dimer: C-terminal Phe bound to an amino group of a Lys linker, 2 chains per Lys) [compound 189]	< 10 µM	–

Molecule	IC50 [1]	IC50 (48 h)
KTKRKRKKQRVKIA [compound 37]	> 30 µM	–
195 (Ac-ARRRRQAVRIIF; also: dimer: C-terminal Phe bound to an amino group of a Lys linker, 2 chains per Lys) [compound 195]	< 10 µM	–
CC[C@H](C)[C@H](NC(=O)[C@H](C)NC(=O)[C@@H](NC(=O)[C@H](CCSC)NC(=O)[C@H](CCC(N)=O)NC(=O)[C@H](CCCNC(=N)N)NC(=O)[C@H](CCCNC(=N)N)NC(=O)[C@H](CCCNC(=N)N)NC(=O)[C@H](CCCNC(=N)N)NC(=O)[C@H](C)NC(C)=O)C(C)C)C(=O)N[C@@H](Cc1ccc(O)cc1)C(=O)N[C@@H](Cc1ccccc1)C(=O)N[C@@H](CCCCNC(=O)CN(CC(=O)NCCCC[C@H](NC(=O)[C@H](Cc1ccccc1)NC(=O)[C@H](Cc1ccc(O)cc1)NC(=O)[C@@H](NC(=O)[C@H](C)NC(=O)[C@@H](NC(=O)[C@H](CCSC)NC(=O)[C@H](CCC(N)=O)NC(=O)[C@H](CCCNC(=N)N)NC(=O)[C@H](CCCNC(=N)N)NC(=O)[C@H](CCCNC(=N)N)NC(=O)[C@H](CCCNC(=N)N)NC(=O)[C@H](C)NC(C)=O)C(C)C)[C@@H](C)CC)C(N)=O)C(=O)CCNC(=O)OC(C)(C)C)C(N)=O [Peptide 385]	–	< 10 µM
425 (Ac-ARRRRQRVAIKF; not fully specified (residue 11); also: homodimer of residues 1-12 via Ida linker on Lys11 side chain) [compound 425]	< 10 µM	–
395 (Ac-ARRRRQAVTIYFK; not fully specified (residue 13, C-terminus); also: homodimer of residues 1-13 via Ida linker at Lys13 side chain) [compound 395]	< 10 µM	–
428 (Ac-ARRRRQAVAIK(GP3)F; reading uncertain; also: homodimer via GP3 linker at K11) [compound 428]	< 10 µM	–
420 (Ac-ARRRRQSVAIYFK; not fully specified (residue 13, C-terminus); also: homodimer of residues 1-13 via Ida linker on K13 side chain) [compound 420]	< 10 µM	–
411 (Ac-TRRRRQAVAIYFK; not fully specified (residue 13, C-terminus); also: homodimer via Ida linker on Lys side chains, linker at 13 via Ida, other end not in the chain) [compound 411]	< 10 µM	–
178 (Ac-RRRRRQAVRIIF; also: dimer: C-terminus of Phe12 of each chain bound to one amino group of a Lys linker) [compound 178]	< 10 µM	–
CC[C@H](C)[C@H](NC(=O)[C@H](C)NC(=O)[C@@H](NC(=O)[C@H](C)NC(=O)[C@H](CCC(N)=O)NC(=O)[C@H](CCCNC(=N)N)NC(=O)[C@H](CCCNC(=N)N)NC(=O)[C@H](CCCNC(=N)N)NC(=O)[C@H](CCCNC(=N)N)NC(=O)[C@H](CCCNC(=N)N)NC(C)=O)C(C)C)C(=O)N[C@@H](Cc1ccc(O)cc1)C(=O)N[C@@H](Cc1ccccc1)C(=O)N[C@@H](CCCCNC(=O)CN(CC(=O)NCCCC[C@H](NC(=O)[C@H](Cc1ccccc1)NC(=O)[C@H](Cc1ccc(O)cc1)NC(=O)[C@@H](NC(=O)[C@H](C)NC(=O)[C@@H](NC(=O)[C@H](C)NC(=O)[C@H](CCC(N)=O)NC(=O)[C@H](CCCNC(=N)N)NC(=O)[C@H](CCCNC(=N)N)NC(=O)[C@H](CCCNC(=N)N)NC(=O)[C@H](CCCNC(=N)N)NC(=O)[C@H](CCCNC(=N)N)NC(C)=O)C(C)C)[C@@H](C)CC)C(N)=O)C(=O)CCNC(=O)OC(C)(C)C)C(N)=O [Peptide 267]	–	< 10 µM
509 (Ac-ARRRRARVAIYFK; not fully specified (C-terminus); also: homodimer via Ida linker at Lys13 side chain) [compound 509]	< 10 µM	–
471 (Ac-PRRRFQAVAIYFK(Ida(3)); not fully specified (C-terminus); also: homodimer via Ida linker on Lys13 side chain) [compound 471]	> 30 µM	–
KRKRKKQRVKIAYEEIFVKNM [compound 3]	10 to 30 µM	–
246 (Ac-RRRRHQHVRIIF; also: homodimer: C-termini of two chains bound to the two amines of a Lys linker) [compound 246]	< 10 µM	–
KKKKKMPKLRFASRIRKIRKKQF [compound 71]	10 to 30 µM	–
357 (Ac-RRRRRQAVRIQIQFK; not fully specified) [compound 357]	10 to 30 µM	–
171 (Ac-RRRRRQRVRIIFK; also: homodimer via GP3-PEG 20 kDa linker on Lys13 side chains) [compound 171]	< 10 µM	–
299 (Ac-RRRRRQAVRIGIGFK-NH2; also: homodimer: Lys15 side chain bound to Ida linker) [compound 299]	< 10 µM	–
203 (Ac-RRARAQRVRIIF; also: dimer: C-terminal Phe bound to an amino group of a Lys linker, 2 chains per Lys) [compound 203]	< 10 µM	–
458 (Ac-KARRRRQAVAIYF; not fully specified (residue 1); also: homodimer via Ida linker on Lys side chains, linker at 1 via Ida, other end not in the chain) [compound 458]	> 30 µM	–
KTKRKRKKQRVKIAYEEAAVQNM [compound 47]	> 30 µM	–
